Common to all, as to format: in vivo, rat
Series [1] deals with Sprague Dawley rats. The series is described as follows: Dose range finding in rats: clinical signs, body weight, survival. The method, then:
The purpose of this study was to determine the DRF of SET-M33 peptide when administered by intravenous bolus to Sprague Dawley rats. In order to identify a starting point for DRF, in Phase I of this study the peptide was administered once daily for 3 days at a constant dose of 20 mg/kg/day to six animals (three males and three females). […] No clinical signs were recorded in any animal 20–60 min after administration. Body weight of all animals in Phase I remained constant or decreased slightly during treatment.
Phase II, where 10 animals/group (five males and five females) were used, included a control group and two dose groups (10 mg/kg/day and 20 mg/kg/day), that were injected once daily for seven days. […] At 20 mg/kg/day, additional clinical signs, including decreased activity, irregular and/or slow breathing, piloerection, partially closed eyelids, abnormal uncoordinated gait, reduced body tone and hunched posture, were observed during the 7 days. The mean body weight of males treated with 10 and 20 mg/kg/day declined slightly (6% and 5% less than control group, respectively).
Sprague Dawley rats were used for the toxicity studies. The animals were supplied by Envigo RMS S.L. All animals were 6–8 weeks old at the start of treatment and were allocated randomly to the treatment groups. […]
A viability/mortality check was recorded at least twice daily. […]

Series [2] concerns Sprague Dawley rats. Kind of series: Four-week toxicity study in rats: clinical biochemistry and urinalysis. To be noted: mean ± SD. The method, then: The purpose of this study was to evaluate the toxic effects of SET-M33 when administered intravenously to Sprague Dawley rats for 4 weeks. Recovery was evaluated during a 14-day drug-free period. The peptide was administered once a day at three dose levels at 5, 9 and 15 mg/kg/day, and the control group was treated with the vehicle (ten males and ten females per group which were sacrificed after 4 weeks for clinical and necroscopy analyses; five males and five females for the control and 15 mg/kg/day groups which were sacrificed after the 2 weeks recovery period). The higher dose was selected on the basis of the DRF study (above) in which evident toxicity was recorded at the dose of 20 mg/kg. The efficacy dose in mouse is 5 mg/kg[24]. The lowest dose of this test is approximately twice the equivalent efficacy dose in rat (using body surface area) and the intermediate dose is approximately the geometric mean of the other two.
Blood samples were collected into lithium heparin tubes. The following parameters were determined using a Cobas 6000 Analyzer (Roche): glucose (Gluc), urea (Urea), creatinine (Creat), bilirubin, total (Bili), cholesterol, total (Chol), triglycerides (Trig), aspartate aminotransferase (AST), alanine aminotransferase (ALT), alkaline phosphatase (ALP), creatine kinase (CK), gamma-glutamyl-transferase (gGT), calcium (Ca), inorganic phosphorus (Phos), sodium (Na), potassium (K), chloride (Cl), albumin (Alb), globulin (calculated from total protein and Alb%) (Glob), total protein (Total Prot), album/globulin ratio (A/G ratio).
Urine was collected overnight into specimen vials (animals were placed in metabolism cages at the end of the working day preceding the day of urine collection). The following parameters were determined using a Cobas u 411 semi-automated test strip analyser (Roche): specific gravity (SG1), protein (Prot), ketones (Keto), volume (Vol), creatinine (U-Creat), bilirubin (Bili), colour (Col), glucose (U-Gluc), erythrocytes (U-RBC), appearance (App), nitrite (Nite), pH, leukocytes (U-WBC).

Series [3] has as its system rats. The series is described as follows: Respiratory function in rats (whole body plethysmography). The method, then: The possible side-effects of SET-M33 on respiratory function were evaluated after administration of the peptide as a single intravenous bolus at doses of 5, 9 and 15 mg/kg with vehicle (eight animals/group). Respiratory rate, tidal volume and minute volume were assessed. As in the case of neurological toxicity and the 4-week toxicity study, again the dose levels were selected on the basis DRF (above). Baclofen, a muscle relaxer and antispasmodic used to treat muscle pain, spasms and stiffness in people with multiple sclerosis or spinal cord injury or disease, was used as positive control. It was administered as a single intravenous injection at a dose of 15 mg/kg.
Whole body, bias flow plethysmography equipment was used[51]. Respiratory parameters (respiratory rate, tidal volume and minute volume) were derived from the changes in pressure associated with the warming and humidification of the air breathed in by the animal. This was monitored by specific probes located in the plethysmograph chambers. Bias flow (room air) was set at approximately 2.5 L/min. On a day prior to the first day of dosing, all animals were habituated to the plethysmographs for approximately 2 h. The study was run over 4 days and 10 animals (two from each group) were examined each day. On the day of dosing, the animals were placed in the plethysmographs for pre-dose recording (session 1) of respiratory parameters for 60 min. Groups of 8 rats were then removed from the chambers and dosed by intravenous bolus injection with vehicle, SET-M33 or positive control. Immediately after dosing, the rats were placed in the whole body plethysmographs, where they could move about freely, to continuously record respiratory parameters for 4 h post-dose (undisturbed recording). Immediately after the last post-dose recording, the animals were killed humanely by a rising concentration of carbon dioxide. Death was confirmed by dislocation of the neck. Respiratory parameters were reported at the following time points: 0, 30, 60, 90, 120, 150, 180, 210 and 240 min. Time 0 coincided with the mean value of the last 20 min of data recorded in the 60-min pre-dose period. All other time points were the mean of 10-min recordings (an average of every 10 breaths) around each time point. Each post-dose time point was analysed separately by analysis of covariance. Factors in the model were group and day of data collection, with pre-dose values as covariate.

Positions of bridges follow the written chain, without caps; N, C: chain ends. Non-standard residues stand in square brackets, D forms with d. Residues, ends and D or L forms follow the SMILES beside them. Chains are numbered I, II in the order given. βAla = NCCC(=O)O

With `CC[C@H](C)[C@H](NC(=O)[C@H](CCCCN)NC(=O)[C@@H](N)CCCCN)C(=O)N[C@@H](CCCNC(=N)N)C(=O)N[C@H](C(=O)N[C@@H](CCCNC(=N)N)C(=O)N[C@@H](CC(C)C)C(=O)N[C@@H](CO)C(=O)N[C@@H](C)C(=O)NCCCC[C@H](NC(=O)[C@H](C)NC(=O)[C@H](CO)NC(=O)[C@H](CC(C)C)NC(=O)[C@H](CCCNC(=N)N)NC(=O)[C@@H](NC(=O)[C@H](CCCNC(=N)N)NC(=O)[C@@H](NC(=O)[C@H](CCCCN)NC(=O)[C@@H](N)CCCCN)[C@@H](C)CC)C(C)C)C(=O)NCCCC[C@H](NC(=O)[C@H](CCCCNC(=O)[C@H](C)NC(=O)[C@H](CO)NC(=O)[C@H](CC(C)C)NC(=O)[C@H](CCCNC(=N)N)NC(=O)[C@@H](NC(=O)[C@H](CCCNC(=N)N)NC(=O)[C@@H](NC(=O)[C@H](CCCCN)NC(=O)[C@@H](N)CCCCN)[C@@H](C)CC)C(C)C)NC(=O)[C@H](C)NC(=O)[C@H](CO)NC(=O)[C@H](CC(C)C)NC(=O)[C@H](CCCNC(=N)N)NC(=O)[C@@H](NC(=O)[C@H](CCCNC(=N)N)NC(=O)[C@@H](NC(=O)[C@H](CCCCN)NC(=O)[C@@H](N)CCCCN)[C@@H](C)CC)C(C)C)C(=O)NCCC(=O)O)C(C)C` [SET-M33] (I: H-KKIRVRLSAKK[βAla]-OH / II: H-KKIRVRLSAK / III: H-KKIRVRLSA / IV: H-KKIRVRLSA; amide I:10-IV:C, I:11-II:C, II:10-III:C (inferred); N-terminus and C-terminus assumed), the female body weight entry in series [1] (female rats, 10 and 20 mg/kg/day iv, 7 days (Phase II)) was “unaffected by treatment”. The survival result in series [1] (rats, Phase I 20 mg/kg/day 3 days and Phase II 10 and 20 mg/kg/day 7 days, iv bolus) is “All animals survived both phases”. The “Phos, inorganic phosphorus” value is 1.49 ± 0.415 mmol/L in series [2] (female rats, 9 mg/kg/day iv, week 4 of treatment); 2.04 ± 0.616 mmol/L in series [2] (female rats, 15 mg/kg/day iv 4 weeks, week 2 of recovery); 1.97 ± 0.309 mmol/L in series [2] (male rats, 5 mg/kg/day iv, week 4 of treatment); 2.26 ± 0.393 mmol/L in series [2] (male rats, 9 mg/kg/day iv, week 4 of treatment); 2.83 ± 1.37 mmol/L in series [2] (male rats, 15 mg/kg/day iv 4 weeks, week 2 of recovery). Moreover, the “minute volume vs vehicle” value in series [3] (rats, 15 mg/kg single iv bolus, 30 min post-dose, subsided by 60 min) is on record as “statistically significant increase”. The “effects on respiratory rate, tidal volume or minute volume” value in series [3] (rats, 5, 9 and 15 mg/kg single iv bolus, 4 h post-dose, n=8/group) is “did not produce any statistically significant adverse effects”.

(Values after article PMC9652379, “Safety evaluations of a synthetic antimicrobial peptide administered intravenously in rats and dogs” (Scientific Reports, 2022).)
